The text below walks through data of patent publication US20110009403A1, “2-MORPHOLINYLPURINES AS INHIBITORS OF PI3K” (S*BIO Pte Ltd., priority 2007, published 2011).

Where only a bound is given, the exact number is not on record here.

The target of one assay is T1, PI3K p110α/p85 (Homo sapiens, UniProt P42336).
T1 construct: made in house
As to the kind of experiment: PI3K assay ([γ33P]ATP, PtdIns/PtdSer coated plates). The note with it: 2 μM ATP, 1 hour at RT; read-out: IC50 (PI3Kα). It is filed as biochemical. The procedure: Recombinant PI3K p110α/p85 was prepared in-house. Phosphatidylinositol (PtdIns), phosphotidylserine (PtdSer) and all other unspecified chemicals were purchased from Sigma-Aldrich. [γ^33P]ATP and Optiphase scintillant were obtained from Perkin Elmer.
Assays were performed in a final assay volume of 25 μL in 384-well Maxisorp plates (Nunc). Compounds were tested at 8 concentrations in 3-fold serial dilution, generally starting from 10 μM. Maxisorp plates were coated with 20 μL/well of a 1:1 mixture of PtdIns and PtdSer [0.1 mg/mL each dissolved in chloroform:ethanol (3:7)] and left overnight in a fume hood at room temperature (RT) to dry.
The enzyme reaction was created by pipetting 5 μL/well of compound (in 2.5% DMSO), 10 μL/well of enzyme (0.5 μg/mL p110α+1 μg/mL p85), and 10 μL/well of 5 μM ATP with 5 μCi/mL [γ^33P]ATP in assay buffer (final concentrations: 0.2 μg/mL p110α, 2 μM ATP, […] [γ^33P]ATP in 1× assay buffer: 100 mM Tris-HCl pH 7.0, 200 mM NaCl, 8 mM MgCl2). The reaction was incubated for 1 hour at RT and terminated with 30 μL/well of 50 mM EDTA solution. The plate was then washed twice with TBS, dried, and added with 30 μL/well of scintillant before it was counted in a MicroBeta Trilux.

For another assay, the target named is mTOR (Homo sapiens, UniProt P42345). As to the kind of experiment: mTOR assay (phosphorylation of 4eBP1, [γ33P]-ATP filter plate). The note with it: 10 μM ATP, 1 hour at room temperature. The class given is biochemical. The procedure: Truncated mTOR kinase and His-tagged 4eBP1 were produced in-house. [γ^33P]-ATP was purchased from Amersham (GE Healthcare). All chemicals, unless otherwise stated, were from Sigma-Aldrich.
mTOR, sequence (P42345 1382-2549 limits assumed): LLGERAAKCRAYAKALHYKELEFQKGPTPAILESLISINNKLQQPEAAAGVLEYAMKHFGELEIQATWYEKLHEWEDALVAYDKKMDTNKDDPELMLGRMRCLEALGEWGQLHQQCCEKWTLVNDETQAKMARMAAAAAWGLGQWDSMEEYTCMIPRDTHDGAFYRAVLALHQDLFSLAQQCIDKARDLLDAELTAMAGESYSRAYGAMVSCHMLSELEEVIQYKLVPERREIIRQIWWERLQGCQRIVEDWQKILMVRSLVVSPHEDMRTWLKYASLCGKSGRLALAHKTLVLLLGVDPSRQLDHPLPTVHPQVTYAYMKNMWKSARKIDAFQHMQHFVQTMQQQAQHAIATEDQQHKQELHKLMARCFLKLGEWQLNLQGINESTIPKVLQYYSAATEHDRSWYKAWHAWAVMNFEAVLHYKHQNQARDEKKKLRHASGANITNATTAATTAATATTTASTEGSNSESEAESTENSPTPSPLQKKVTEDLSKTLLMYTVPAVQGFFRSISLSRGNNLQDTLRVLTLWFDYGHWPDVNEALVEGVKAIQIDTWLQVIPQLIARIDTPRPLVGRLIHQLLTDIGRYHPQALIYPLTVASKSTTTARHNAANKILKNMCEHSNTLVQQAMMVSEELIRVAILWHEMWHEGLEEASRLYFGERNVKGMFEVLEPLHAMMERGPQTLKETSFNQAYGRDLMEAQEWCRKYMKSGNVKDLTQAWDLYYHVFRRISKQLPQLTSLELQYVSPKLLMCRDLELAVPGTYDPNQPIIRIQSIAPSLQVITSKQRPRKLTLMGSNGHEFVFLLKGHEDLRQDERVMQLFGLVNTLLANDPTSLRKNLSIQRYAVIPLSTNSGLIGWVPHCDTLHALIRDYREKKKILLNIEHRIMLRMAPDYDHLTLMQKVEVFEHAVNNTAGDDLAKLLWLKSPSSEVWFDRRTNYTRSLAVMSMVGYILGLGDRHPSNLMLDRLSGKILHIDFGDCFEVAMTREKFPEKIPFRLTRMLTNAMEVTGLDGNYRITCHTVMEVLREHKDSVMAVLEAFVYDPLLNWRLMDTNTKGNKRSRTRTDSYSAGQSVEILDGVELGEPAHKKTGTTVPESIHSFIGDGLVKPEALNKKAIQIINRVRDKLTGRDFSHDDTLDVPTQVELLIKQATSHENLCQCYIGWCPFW
Phosphorylation assays were initially performed in a final volume of 20 μL in 384-well polypropylene plate (Greiner). Compounds were typically tested over the range from 100 μM to 0.006 μM, in 8 step dilutions, in duplicate. 10 μL/well of 2× Enzyme-Substrate solution (1.5 μg/mL mTOR, 40 μg/mL 4eBP1 in 1× assay buffer: 10 mM Hepes pH 7.5, 50 mM NaCl and 10 mM MnCl2) were first added to the sample plate containing 1 μL/well of test compound in neat DMSO. The reaction was initiated by adding 10 μL/well of 20 μM ATP solution (final assay concentration 10 μM ATP and 0.4 μCi/well of [γ^33P]-ATP). After 1 hour incubation at room temperature, the reaction was terminated with 40 μL/well of 20 mM EDTA/1 mM ATP solution.
50 μL/well of the stopped reaction mix was then transferred to 384-well MultiScreenHTS-PH filter plate (Millipore) pre-added with 50 μL/well of 1% phosphoric acid. The plate was washed 4 times with 120 μL/well of 0.5% phosphoric acid via vacuum filtration. Finally, 10 μL/well of Optiphase™ SuperMix liquid scintillation cocktail (Perkin Elmer) was added. After minimum 1 hour of incubation, counting was performed in a Wallac MicroBeta TriLux scintillation counter using coincidence counting mode with crosstalk correction.

The next assay has as its system DU145. The assay can be described thus: Cell-based proliferation assay, DU145. The note with it: Homo sapiens, DU-145; DU145 cells, 96 h treatment. As to the method: Human cancer cell lines PC3 and DU145 (human prostate cancer cell lines), were obtained from ATCC. They were cultured in the media according to the ATCC work instructions. PC3 and DU145 cells were seeded at 1,000 cells per well in 96-well plates, respectively. The plates were incubated at 37° C., 5% CO2, for 24 h. Cells were treated with compounds at various concentrations for 96 h. Cell proliferation was then quantified using Celltiter96 Aqueous One Solution Cell Proliferation Assay from Promega (Madison Wis.). Dose response curves were plotted to determine IC50 values for the compounds using XL-fit (ID Business Solution, Emeryville, Calif.).

For orientation: IC50 means the concentration at which inhibition is half-maximal.

T1 sequence (P42336 whole entry): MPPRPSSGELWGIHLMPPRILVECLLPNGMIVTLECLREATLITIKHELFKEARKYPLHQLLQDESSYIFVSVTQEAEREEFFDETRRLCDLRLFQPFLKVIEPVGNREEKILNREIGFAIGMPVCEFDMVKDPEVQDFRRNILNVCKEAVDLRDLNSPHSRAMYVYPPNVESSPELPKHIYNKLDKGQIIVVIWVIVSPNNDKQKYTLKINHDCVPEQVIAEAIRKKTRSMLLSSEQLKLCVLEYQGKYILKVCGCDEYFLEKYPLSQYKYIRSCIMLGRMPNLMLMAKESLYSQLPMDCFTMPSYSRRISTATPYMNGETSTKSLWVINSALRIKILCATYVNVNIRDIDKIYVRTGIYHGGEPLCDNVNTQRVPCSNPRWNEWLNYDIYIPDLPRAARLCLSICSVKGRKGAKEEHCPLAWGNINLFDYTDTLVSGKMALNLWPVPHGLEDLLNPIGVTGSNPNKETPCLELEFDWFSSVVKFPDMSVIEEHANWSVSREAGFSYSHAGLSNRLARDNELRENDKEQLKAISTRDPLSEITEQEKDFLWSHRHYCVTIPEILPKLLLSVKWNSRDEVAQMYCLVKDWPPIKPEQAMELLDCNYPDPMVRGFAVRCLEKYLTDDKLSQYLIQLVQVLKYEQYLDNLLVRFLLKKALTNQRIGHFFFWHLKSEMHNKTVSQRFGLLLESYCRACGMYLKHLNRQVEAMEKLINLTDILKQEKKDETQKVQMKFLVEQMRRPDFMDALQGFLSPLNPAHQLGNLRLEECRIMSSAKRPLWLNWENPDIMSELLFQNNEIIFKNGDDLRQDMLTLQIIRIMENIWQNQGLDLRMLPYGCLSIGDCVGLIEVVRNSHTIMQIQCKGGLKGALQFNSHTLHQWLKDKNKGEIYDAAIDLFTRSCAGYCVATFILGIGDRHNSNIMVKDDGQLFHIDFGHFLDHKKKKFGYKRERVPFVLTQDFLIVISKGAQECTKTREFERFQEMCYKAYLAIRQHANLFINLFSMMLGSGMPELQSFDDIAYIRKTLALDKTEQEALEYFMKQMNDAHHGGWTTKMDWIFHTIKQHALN
T1 sequence (P27986 whole entry partner): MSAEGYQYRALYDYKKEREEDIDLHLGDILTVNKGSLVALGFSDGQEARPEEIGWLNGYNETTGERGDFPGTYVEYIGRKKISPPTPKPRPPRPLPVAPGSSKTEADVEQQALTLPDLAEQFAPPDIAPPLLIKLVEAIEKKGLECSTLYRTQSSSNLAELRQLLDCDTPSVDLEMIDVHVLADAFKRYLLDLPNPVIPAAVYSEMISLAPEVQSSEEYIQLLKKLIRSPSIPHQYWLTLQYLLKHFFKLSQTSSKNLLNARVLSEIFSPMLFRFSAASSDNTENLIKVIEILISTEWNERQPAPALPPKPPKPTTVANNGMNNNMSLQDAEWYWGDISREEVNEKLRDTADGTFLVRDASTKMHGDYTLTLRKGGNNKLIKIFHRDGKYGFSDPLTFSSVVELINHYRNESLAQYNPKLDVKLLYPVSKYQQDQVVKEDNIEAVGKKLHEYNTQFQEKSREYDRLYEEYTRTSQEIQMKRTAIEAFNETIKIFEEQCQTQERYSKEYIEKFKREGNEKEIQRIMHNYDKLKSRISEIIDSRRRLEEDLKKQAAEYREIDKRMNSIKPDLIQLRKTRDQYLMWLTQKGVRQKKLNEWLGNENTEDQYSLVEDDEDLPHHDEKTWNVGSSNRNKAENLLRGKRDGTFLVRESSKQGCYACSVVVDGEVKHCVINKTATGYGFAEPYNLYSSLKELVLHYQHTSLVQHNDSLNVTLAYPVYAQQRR

With `Oc1cccc(-c2nc(N3CCOCC3)nc3c2ncn3Cc2ccccc2)c1` [Compound 2], the IC50 at PI3K p110α/p85 is under 1000 nM; at mTOR it was under 1000 nM; with DU145, 1000 to 5000 nM.

As to `COc1ccc(Cn2cnc3c(-c4cccc(O)c4)nc(N4CCOCC4)nc32)cc1` [Compound 8], the IC50 on PI3K p110α/p85 is under 1000 nM; against mTOR it was under 1000 nM; in the assay on DU145 it was 1000 to 5000 nM.

With `C=CCCn1cnc2c(-c3cccc(O)c3)nc(N3CCOCC3)nc21` [Compound 22], the figures for the IC50 on PI3K p110α/p85, on mTOR and in the assay on DU145 were under 1000 nM, under 1000 nM and at most 1000 nM, respectively.

Regarding `N#CCn1cnc2c(-c3cccc(O)c3)nc(N3CCOCC3)nc21` [Compound 35], the IC50 at PI3K p110α/p85 is under 1000 nM; on mTOR, under 1000 nM; with DU145, 1000 to 5000 nM.

`CC(c1ccccc1)n1cnc2c(-c3cccc(O)c3)nc(N3CCOCC3)nc21` (stereo not drawn) [Compound 36]: the IC50 is under 1000 nM on PI3K p110α/p85, under 1000 nM at mTOR and 1000 to 5000 nM in the assay with DU145.

Regarding `Oc1cccc(-c2nc(N3CCOCC3)nc3c2ncn3CC2CC2)c1` [Compound 50], the IC50 at PI3K p110α/p85 was under 1000 nM; at mTOR, under 1000 nM; in the assay on DU145 it was at most 1000 nM.

Consider `O=C(Nc1ccc(Cl)cc1)N1CCC(n2cnc3c(-c4cccc5[nH]ccc45)nc(N4CCOCC4)nc32)CC1` [Compound 106], for which the IC50 on PI3K p110α/p85 and at mTOR was under 1000 nM in each case.

`CS(=O)(=O)N1CCN(C(=O)Cn2cnc3c(-c4cccc(O)c4)nc(N4CCOCC4)nc32)CC1` [Compound 107]: the IC50 on PI3K p110α/p85 and against mTOR was under 1000 nM in each case.

`CS(=O)(=O)N1CCN(CCn2cnc3c(-c4cccc(O)c4)nc(N4CCOCC4)nc32)CC1` [Compound 108]: the IC50 on PI3K p110α/p85 and against mTOR was under 1000 nM throughout.

As for `CCC(C)n1cnc2c(-c3cccc4[nH]ncc34)nc(N3CCOCC3)nc21` (stereo not drawn) [Compound 109], the IC50 at PI3K p110α/p85 and on mTOR was under 1000 nM throughout.

As to `c1cc(-c2nc(N3CCOCC3)nc3c2ncn3C2CCOC2)c2cc[nH]c2c1` (stereo not drawn) [Compound 110], the IC50 at PI3K p110α/p85 and against mTOR was under 1000 nM throughout.

As to `CS(=O)(=O)N1CCC(n2cnc3c(-c4cccc5[nH]ccc45)nc(N4CCOCC4)nc32)CC1` [Compound 111], the IC50 at PI3K p110α/p85 and on mTOR was under 1000 nM in each case.

With `CCc1nc2c(-c3cccc(O)c3)nc(N3CCOCC3)nc2n1C(C)CC` (stereo not drawn) [Compound 112, 3-(9-sec-Butyl-8-ethyl-2-morpholin-4-yl-9H-purin-6-yl)-phenol], the IC50 at PI3K p110α/p85 and on mTOR was under 1000 nM throughout.

For `CCC(C)n1c(C)nc2c(-c3cccc(O)c3)nc(N3CCOCC3)nc21` (stereo not drawn) [Compound 113], the IC50 on PI3K p110α/p85 and at mTOR was under 1000 nM throughout.

`CCC(C)n1c(Br)nc2c(-c3cccc(O)c3)nc(N3CCOCC3)nc21` (stereo not drawn) [Compound 114]: the IC50 on PI3K p110α/p85 and on mTOR was under 1000 nM in each case.

Regarding `Oc1cccc(-c2nc(N3CCOCC3)nc3c2nc(-c2cccs2)n3C2CCCCO2)c1` (stereo not drawn) [Compound 116], the concentration for half-maximal inhibition (IC50) at PI3K p110α/p85 and on mTOR was over 5000 nM in each case.

Regarding `Oc1cccc(-c2nc(N3CCOCC3)nc3[nH]c(-c4cccs4)nc23)c1` [Compound 117], the values for the IC50 at PI3K p110α/p85 and on mTOR were under 1000 nM and over 5000 nM, respectively.

On to `CCSc1nc2c(-c3cccc(O)c3)nc(N3CCOCC3)nc2n1C(C)CC` (stereo not drawn) [Compound 119], for which the IC50 on PI3K p110α/p85 and at mTOR was under 1000 nM in each case.

For the compound `CCCCNc1nc2c(-c3cccc(O)c3)nc(N3CCOCC3)nc2n1C(C)CC` (stereo not drawn) [Compound 120], the half-maximal inhibitory concentration (IC50) on PI3K p110α/p85 and at mTOR was under 1000 nM throughout.

As to `CCC(C)n1c(N(C)C)nc2c(-c3cccc(O)c3)nc(N3CCOCC3)nc21` (stereo not drawn) [Compound 121], the IC50 on PI3K p110α/p85 and at mTOR was under 1000 nM each time.

Turning to `CCNc1nc2c(-c3cccc(O)c3)nc(N3CCOCC3)nc2n1C(C)CC` (stereo not drawn) [Compound 122], the IC50 at PI3K p110α/p85 and against mTOR was under 1000 nM each time.

`CCC(C)n1c(NC(C)C)nc2c(-c3cccc(O)c3)nc(N3CCOCC3)nc21` (stereo not drawn) [Compound 123, 3-(9-sec-Butyl-8-isopropylamino-2-morpholin-4-yl-9H-purin-6-yl)-phenol]: the IC50 at PI3K p110α/p85 and at mTOR was under 1000 nM in each case.

In the case of `CCC(C)n1c(SC)nc2c(-c3cccc(O)c3)nc(N3CCOCC3)nc21` (stereo not drawn) [Compound 124, 3-(9-sec-Butyl-8-methylsulfanyl-2-morpholin-4-yl-9H-purin-6-yl)-phenol], the IC50 on PI3K p110α/p85 and at mTOR was under 1000 nM in each case.

As to `CCC(C)n1c(N2CCCC2)nc2c(-c3cccc(O)c3)nc(N3CCOCC3)nc21` (stereo not drawn) [Compound 125], the IC50 on PI3K p110α/p85 and against mTOR was under 1000 nM in each case.

For `CCC(C)n1c(-c2ccccc2)nc2c(-c3cccc(O)c3)nc(N3CCOCC3)nc21` (stereo not drawn) [Compound 126], the IC50 on PI3K p110α/p85 and against mTOR was under 1000 nM each time.

Consider `CCC(C)n1c(NCCN(C)C)nc2c(-c3cccc(O)c3)nc(N3CCOCC3)nc21` (stereo not drawn) [Compound 127], for which the IC50 at PI3K p110α/p85 and on mTOR was under 1000 nM each time.

Consider `CCC(C)n1c(NCCOC)nc2c(-c3cccc(O)c3)nc(N3CCOCC3)nc21` (stereo not drawn) [Compound 128], for which the IC50 at PI3K p110α/p85 and on mTOR was under 1000 nM each time.

Consider `CCC(C)n1c(Cl)nc2c(-c3cccc(O)c3)nc(N3CCOCC3)nc21` (stereo not drawn) [Compound 129], for which the IC50 at PI3K p110α/p85 and against mTOR was under 1000 nM throughout.

Turning to `CCC(C)n1c(S(C)(=O)=O)nc2c(-c3cccc(O)c3)nc(N3CCOCC3)nc21` (stereo not drawn) [Compound 130, 3-(9-sec-Butyl-8-methanesulfonyl-2-morpholin-4-yl-9H-purin-6-yl)-phenol], the IC50 at PI3K p110α/p85 and against mTOR was under 1000 nM throughout.

On to `Nc1ccc(-c2nc(N3CCOCC3)nc3c2ncn3Cc2cccc([N+](=O)[O-])c2)cn1` [Compound 131], for which the half-inhibitory concentration (IC50) on PI3K p110α/p85 and on mTOR was under 1000 nM each time.

As to `CCC(C)n1cnc2c(-c3ccc(N)nc3)nc(N3CCOCC3)nc21` (stereo not drawn) [Compound 132, 5-(9-sec-Butyl-2-morpholin-4-yl-9H-purin-6-yl)-pyridin-2-ylamine], the IC50 at PI3K p110α/p85 and at mTOR was under 1000 nM in each case.

`Nc1ccc(-c2nc(N3CCOCC3)nc3c2ncn3C2CCCC2)cn1` [Compound 133]: the IC50 on PI3K p110α/p85 and on mTOR was under 1000 nM in each case.

`COCC(C)n1cnc2c(-c3ccc(N)nc3)nc(N3CCOCC3)nc21` (stereo not drawn) [Compound 134, 5-[9-(2-Methoxy-1-methyl-ethyl)-2-morpholin-4-yl-9H-purin-6-yl]-pyrirlin-2-ylamino]: the IC50 at PI3K p110α/p85 and against mTOR was under 1000 nM each time.

For `CC(C)n1cnc2c(-c3ccc(N)nc3)nc(N3CCOCC3)nc21` [Compound 135], the IC50 on PI3K p110α/p85 and at mTOR was under 1000 nM each time.

Turning to `CC(C)C(C)n1cnc2c(-c3ccc(N)nc3)nc(N3CCOCC3)nc21` (stereo not drawn) [Compound 136], the IC50 on PI3K p110α/p85 and against mTOR was under 1000 nM throughout.

As to `CCC(C#N)n1cnc2c(-c3ccc(N)nc3)nc(N3CCOCC3)nc21` (stereo not drawn) [Compound 137], the IC50 on PI3K p110α/p85 was 1000 to 5000 nM; at mTOR it was under 1000 nM.

As for `CCC(CC)n1cnc2c(-c3ccc(N)nc3)nc(N3CCOCC3)nc21` [Compound 138], the IC50 at PI3K p110α/p85 and against mTOR was under 1000 nM in each case.

In the case of `N#CCn1cnc2c(-c3ccc(O)nc3)nc(N3CCOCC3)nc21` [Compound 139], the IC50 at PI3K p110α/p85 and against mTOR was over 5000 nM in each case.

For the compound `COCCn1cnc2c(-c3cncc(F)c3)nc(N3CCOCC3)nc21` [Compound 140], the IC50 on PI3K p110α/p85 was 1000 to 5000 nM; against mTOR it was over 5000 nM.
